Earlier results in patent publication US8163058B2 (Whitehurst Associates, Inc., priority 2009, dated 2012).

Settings: prior art description

SMILES: CCCCNP(N)(N)=S [NBPT, N-(n-butyl) thiophosphoric triamide]
- Hydrolytic stability: undergoes hydrolysis
- Thermal stability: thermally unstable
